Assay results from PMC3599939 (BMC Infectious Diseases, 2013).

System: influenza virus neuraminidase (NA)
Format: biochemical

CCOC(=O)C1=C[C@@H](OC(CC)CC)[C@H](NC(C)=O)[C@@H](N)C1 [Oseltamivir, oseltamivir]
Phenotype (S/R): R and S
sensitivity of viruses to Oseltamivir: sensitive
